According to the supplement of paper PMC10307832:

Columns and labels:
Assay in all cases: relative viability (nuclei count vs DMSO), 5 days (fraction); higher = more cells survive
Dovitinib + Crizotinib = compound: CN1CCN(c2ccc3nc(-c4c(N)c5c(F)cccc5[nH]c4=O)[nH]c3c2)CC1 [Dovitinib] + C[C@@H](Oc1cc(-c2cnn(C3CCNCC3)c2)cnc1N)c1c(Cl)ccc(F)c1Cl [Crizotinib] (partner 1 µM)
Summary of the method: (§1)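 Medians of duplicate plates are given as relative viability. That measure is the nuclei count in treated wells divided by the count in vehicle wells. Counts were taken on 4× images of lung cancer cell lines in 1536-well plates, 5 days after pin-tool dosing the day after seeding with one drug alone or a fixed anchor-drug dose plus five library-drug doses (not always all listed) in √10 steps.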

Dovitinib + Phenformin = compound: CN1CCN(c2ccc3nc(-c4c(N)c5c(F)cccc5[nH]c4=O)[nH]c3c2)CC1 [Dovitinib] + N=C(N)NC(=N)NCCc1ccccc1 [Phenformin] (partner 250 µM)
Summary of the method: as §1

Dovitinib + OSI-027 = compound: CN1CCN(c2ccc3nc(-c4c(N)c5c(F)cccc5[nH]c4=O)[nH]c3c2)CC1 [Dovitinib] + COc1cccc2cc(-c3nc([C@H]4CC[C@H](C(=O)O)CC4)n4ncnc(N)c34)[nH]c12 [OSI-027] (partner 0.5 µM)
Summary of the method: as §1

Dovitinib + Trametinib = compound: CN1CCN(c2ccc3nc(-c4c(N)c5c(F)cccc5[nH]c4=O)[nH]c3c2)CC1 [Dovitinib] + CC(=O)Nc1cccc(-n2c(=O)n(C3CC3)c(=O)c3c(Nc4ccc(I)cc4F)n(C)c(=O)c(C)c32)c1 [Trametinib] (partner 0.02 µM)
Summary of the method: as §1

| Cell Line | relative viability (Dovitinib + Crizotinib; first compound 0.02 µM) | relative viability (Dovitinib + Crizotinib; first compound 0.06325 µM) | relative viability (Dovitinib + Crizotinib; first compound 0.6325 µM) | relative viability (Dovitinib + Crizotinib; first compound 2 µM) | relative viability (Dovitinib + Phenformin; first compound 0.02 µM) | relative viability (Dovitinib + Phenformin; first compound 0.06325 µM) | relative viability (Dovitinib + Phenformin; first compound 0.2 µM) | relative viability (Dovitinib + Phenformin; first compound 0.6325 µM) | relative viability (Dovitinib + Phenformin; first compound 2 µM) | relative viability (Dovitinib + OSI-027; first compound 0.02 µM) | relative viability (Dovitinib + OSI-027; first compound 0.06325 µM) | relative viability (Dovitinib + OSI-027; first compound 0.2 µM) | relative viability (Dovitinib + OSI-027; first compound 0.6325 µM) | relative viability (Dovitinib + OSI-027; first compound 2 µM) | relative viability (Dovitinib + Trametinib; first compound 0.02 µM) | relative viability (Dovitinib + Trametinib; first compound 0.06325 µM) | relative viability (Dovitinib + Trametinib; first compound 0.2 µM) | relative viability (Dovitinib + Trametinib; first compound 0.6325 µM) | relative viability (Dovitinib + Trametinib; first compound 2 µM) | relative viability (Dovitinib + Crizotinib; first compound 0.2 µM) |
| --- | --- | --- | --- | --- | --- | --- | --- | --- | --- | --- | --- | --- | --- | --- | --- | --- | --- | --- | --- | --- |
| 201T | 1.03 | 0.935 | 0.992 | 1.01 | 0.449 | 0.42 | 0.463 | 0.409 | 0.459 | 0.704 | 0.747 | 0.748 | 0.898 | 0.724 | 0.706 | 0.701 | 0.699 | 0.748 | 0.674 | – |
| A-427 | 0.854 | 0.812 | 0.708 | 0.819 | 0.363 | 0.3 | 0.307 | 0.282 | 0.347 | 0.524 | 0.432 | 0.455 | 0.452 | 0.399 | 0.724 | 0.705 | 0.709 | 0.768 | 0.72 | 0.85 |
| ABC-1 | 1.54 | 1.19 | 1.2 | 1.08 | 0.211 | 0.317 | 0.243 | 0.237 | 0.204 | 0.445 | 0.505 | 0.48 | 0.448 | 0.51 | – | – | – | – | – | 1.22 |
| BEN | 0.864 | 0.903 | 0.827 | 0.887 | 0.248 | 0.288 | 0.281 | 0.296 | 0.305 | 0.319 | 0.302 | 0.342 | 0.312 | 0.287 | 0.976 | 0.888 | 1.01 | 1.05 | 1.04 | 0.912 |
| CAL-12T | 0.532 | 0.628 | 0.635 | 0.661 | 0.585 | 0.624 | 0.556 | 0.616 | 0.664 | 0.839 | 0.768 | 0.913 | 0.569 | 0.742 | 0.491 | 0.34 | 0.413 | 0.36 | 0.371 | 0.654 |
| COR-L23 | 0.655 | 0.526 | 0.55 | 0.756 | 0.416 | 0.467 | 0.478 | 0.455 | 0.507 | 0.681 | 0.856 | 0.835 | 0.791 | 0.823 | 0.568 | 0.641 | 0.601 | 0.532 | 0.628 | 0.638 |
| COR-L 105 | 0.706 | 0.832 | 0.701 | 0.69 | 0.396 | 0.52 | 0.506 | 0.486 | 0.62 | 0.722 | 0.637 | 0.649 | 0.659 | 0.784 | 0.533 | 0.405 | 0.441 | 0.459 | 0.577 | 0.774 |
| Calu-6 | 0.674 | 0.827 | 0.847 | 0.779 | – | – | – | – | – | – | – | – | – | – | – | – | – | – | – | 0.665 |
| ChaGo-K-1 | 1.03 | 1.08 | 1.11 | 1.15 | 0.469 | 0.534 | 0.499 | 0.476 | 0.51 | 0.549 | 0.556 | 0.635 | 0.542 | 0.614 | 0.868 | 0.875 | 0.936 | 0.885 | 0.778 | 1.09 |
| EKVX | 0.937 | 0.975 | 0.988 | 0.906 | 0.217 | 0.225 | 0.232 | 0.253 | 0.236 | 0.724 | 0.717 | 0.731 | 0.731 | 0.702 | 0.395 | 0.32 | 0.332 | 0.351 | 0.327 | 1.08 |
| EMC-BAC-2 | 0.702 | 0.699 | 0.62 | 0.776 | 0.527 | 0.482 | 0.538 | 0.471 | 0.542 | 0.484 | 0.27 | 0.409 | 0.381 | 0.461 | 1.2 | 0.811 | 0.986 | 0.873 | 0.945 | 0.749 |
| EPLC-272H | 0.799 | 0.994 | 1.09 | 0.972 | 0.323 | 0.309 | 0.274 | 0.384 | 0.317 | 0.258 | 0.336 | 0.3 | 0.28 | 0.241 | 0.306 | 0.269 | 0.298 | 0.269 | 0.303 | 0.981 |
| H3255 | 0.898 | 0.903 | 0.929 | 0.871 | 0.378 | 0.347 | 0.381 | 0.372 | 0.441 | 0.637 | 0.601 | 0.627 | 0.716 | 0.585 | 0.699 | 0.578 | 0.746 | 0.614 | 0.566 | 0.854 |
| HARA | 1.07 | 1.08 | 1.1 | 1.07 | 0.537 | 0.476 | 0.47 | 0.362 | 0.53 | 0.628 | 0.438 | 0.456 | 0.538 | 0.474 | 0.89 | 0.924 | 0.484 | 0.827 | 0.878 | 0.985 |
| HCC-15 | 0.756 | 0.841 | 0.79 | 0.812 | 0.482 | 0.475 | 0.502 | 0.436 | 0.472 | 0.658 | 0.68 | 0.741 | 0.656 | 0.711 | 0.434 | 0.342 | 0.369 | 0.341 | 0.377 | 0.719 |
| HCC-44 | 0.668 | 0.793 | 0.745 | 0.777 | 0.294 | 0.138 | 0.174 | 0.229 | 0.197 | 0.538 | 0.578 | 0.569 | 0.485 | 0.524 | 1.06 | 1.07 | 1.1 | 1.07 | 1.02 | 0.76 |
| HCC-78 | 0.334 | – | 0.347 | 0.363 | 0.769 | 0.688 | 0.716 | 0.902 | 0.729 | 0.384 | 0.544 | 0.373 | 0.403 | 0.388 | 0.643 | 0.663 | 0.762 | 0.813 | 0.746 | 0.356 |
